Test results taken from article PMC6832952, “Synthesis and Evaluation of Pyrimidine Steroids as Antiproliferative Agents” (Molecules, 2019).
Like-named read-outs stand apart in the source and are kept apart here.

Key:
[1] = tested on: HBL-100 (breast) cells; assay: Growth inhibition assay (NCI protocol), HBL-100; format: cell-based, human; conditions: 48 h exposure
Source text: (§1) We studied the antiproliferative activity of α,β-unsaturated ketones (2 and 6) and steroidal pyrimidines (3 and 7) against human cell lines following the guidelines of the National Cancer Institute. For the tests we selected five human solid tumor cell lines from diverse origins and one human fibroblast cell line as a model of non-tumor cells. These cell lines were chosen as representative of drug sensitive (A549, HBL-100, and HeLa) and drug resistant (T-47D and WiDr) monolayer cultures based on previous studies. The steroidal anticancer drugs abiraterone and galeterone were also tested for comparison purposes. […] This is a relevant finding, since our compounds are non-toxic to healthy cells, whilst the steroidal anticancer drugs inhibit the growth of fibroblasts at GI50 values as low as 4.5–5 µM.
(§2) The following densities (cells per well) were used: 2500 (A549, HBL-100, HeLa and SW1573), 5000 (T-47D, WiDr and SW1573/PGP), and 7000 (BJ-hTERT). […] Abiraterone and galeterone were used as reference drugs for antiproliferative tests, verapamil was used as a P-gp transport inhibitor in SW1573/Pgp experiments, and their stock solutions were prepared in DMSO at 40 mM. Paclitaxel and vinblastine were used as positive controls in SW1573/Pgp experiments and were initially dissolved in DMSO at 4 mM. For each test compound, the cells were exposed to serial decimal dilutions in the range of 0.001–100 μM for a period of 48 h. Cell culture medium containing verapamil was prepared by adding the final concentration of verapamil of 10 μM. For each product GI50 values were calculated according to the NCI formulas.

[2] = tested on: HeLa (cervix) cells; assay: Growth inhibition assay (NCI protocol), HeLa; format: cell-based, human; conditions: 48 h exposure
Source text: as §1, §2

[3] = tested on: T-47D (breast) cells; assay: Growth inhibition assay (NCI protocol), T-47D; format: cell-based, human; conditions: 48 h exposure
Source text: as §1, §2

[4] = tested on: BJ-hTERT human fibroblast cells; assay: Growth inhibition assay (NCI protocol), BJ-hTERT fibroblasts; format: cell-based; conditions: 48 h exposure, non-tumor cells
Source text: as §1, §2

[5] = tested on: A549 (non-small cell lung) cells; assay: Growth inhibition assay (NCI protocol), A549; format: cell-based, human; conditions: 48 h exposure
Source text: as §1, §2

[6] = tested on: SW1573/PGP cells; assay: in vitro
Source text: (§3) Next, we studied if the compounds could be substrates for P-glycoprotein 1 (P-gp). P-gp is an important protein of the cell membrane that pumps xenobiotics out of cells. One of the resistance mechanisms to anticancer drugs involves the overexpression of P-gp by cancer cells, rendering these cancers multidrug resistant. Therefore, it is relevant to know whether compounds are substrates for P-gp or not. As a model to test the effect of P-gp overexpression in our compounds, we used a cell line-based assay. We selected one wild type human lung cancer cell line (SW1573) and its P-gp overexpressing variant (SW1573/PGP). In this test, cells were exposed to the compounds for 48 h in the absence or the presence of 10 µM verapamil, a well-known P-gp inhibitor [20].
(§4) The human solid tumor cell lines A549 (non-small cell lung), HBL-100 (breast), and HeLa (cervix), SW1573 (non-small cell lung), and its P-gp overexpressing variant (SW1573/Pgp), T-47D (breast), and WiDr (colon) were used in this study. These cell lines used in this study were kindly provided by Dr. Godefridus J. Peters (Cancer Center Amsterdam, Vrije Universiteit, Amsterdam, The Netherlands). BJ-hTERT human fibroblast cells were given by Dr. Raimundo Freire (Universidad de La Laguna, Canary Islands). All cells were grown in RPMI 1640 supplemented with 1 mM glutamine, 5% FBS and antibiotics. Cells were grown at 37 °C in a humidified atmosphere of 5% CO2 and maintained at low passage.
(§5) The antiproliferative activity was tested in vitro against human cancer cells using the protocol of the National Cancer Institute (NCI) of the USA16 with minor modifications. The following densities (cells per well) were used: 2500 (A549, HBL-100, HeLa and SW1573), 5000 (T-47D, WiDr and SW1573/PGP), and 7000 (BJ-hTERT). Samples for testing were dissolved initially in DMSO at 40 mM, i.e., 400 times the maximum test concentration. Abiraterone and galeterone were used as reference drugs for antiproliferative tests, verapamil was used as a P-gp transport inhibitor in SW1573/Pgp experiments, and their stock solutions were prepared in DMSO at 40 mM. Paclitaxel and vinblastine were used as positive controls in SW1573/Pgp experiments and were initially dissolved in DMSO at 4 mM. For each test compound, the cells were exposed to serial decimal dilutions in the range of 0.001–100 μM for a period of 48 h. Cell culture medium containing verapamil was prepared by adding the final concentration of verapamil of 10 μM. For each product GI50 values were calculated according to the NCI formulas.

[7] = tested on: WiDr (colon) cells; assay: Growth inhibition assay (NCI protocol), WiDr; format: cell-based, human; conditions: 48 h exposure
Source text: as §1, §2

[8] = tested on: SW1573 (non-small cell lung) cells; assay: Growth inhibition assay, SW1573 wild type; format: cell-based, human; conditions: 48 h, without verapamil, read-out: GI50 SW1573 w/o Verapamil
Source text: as §3, §4, §5

[9] = tested on: P-gp; assay: in vitro; conditions: human
Source text: as §3, §4, §5

[10] = molecular target: T1, P-glycoprotein 1 (P-gp) (Homo sapiens, UniProt P08183); assay: P-glycoprotein assay (SW1573/PGP vs SW1573, resistance factor); format: cell-based; conditions: for Rf w Verapamil / Rf w/o Verapamil: ratio between GI50 values in SW1573/PGP and SW1573 cells; for Rf w Verapamil: with 10 µM verapamil; for Rf w/o Verapamil: without verapamil
T1 construct: its P-gp overexpressing variant (SW1573/PGP); endogenous in cells; host or cells: SW1573 and SW1573/PGP (SW1573/Pgp) human non-small cell lung cancer cells, provided by Dr. G. J. Peters (Amsterdam)
Source text: as §3, §5

T1 sequence (P08183 whole entry): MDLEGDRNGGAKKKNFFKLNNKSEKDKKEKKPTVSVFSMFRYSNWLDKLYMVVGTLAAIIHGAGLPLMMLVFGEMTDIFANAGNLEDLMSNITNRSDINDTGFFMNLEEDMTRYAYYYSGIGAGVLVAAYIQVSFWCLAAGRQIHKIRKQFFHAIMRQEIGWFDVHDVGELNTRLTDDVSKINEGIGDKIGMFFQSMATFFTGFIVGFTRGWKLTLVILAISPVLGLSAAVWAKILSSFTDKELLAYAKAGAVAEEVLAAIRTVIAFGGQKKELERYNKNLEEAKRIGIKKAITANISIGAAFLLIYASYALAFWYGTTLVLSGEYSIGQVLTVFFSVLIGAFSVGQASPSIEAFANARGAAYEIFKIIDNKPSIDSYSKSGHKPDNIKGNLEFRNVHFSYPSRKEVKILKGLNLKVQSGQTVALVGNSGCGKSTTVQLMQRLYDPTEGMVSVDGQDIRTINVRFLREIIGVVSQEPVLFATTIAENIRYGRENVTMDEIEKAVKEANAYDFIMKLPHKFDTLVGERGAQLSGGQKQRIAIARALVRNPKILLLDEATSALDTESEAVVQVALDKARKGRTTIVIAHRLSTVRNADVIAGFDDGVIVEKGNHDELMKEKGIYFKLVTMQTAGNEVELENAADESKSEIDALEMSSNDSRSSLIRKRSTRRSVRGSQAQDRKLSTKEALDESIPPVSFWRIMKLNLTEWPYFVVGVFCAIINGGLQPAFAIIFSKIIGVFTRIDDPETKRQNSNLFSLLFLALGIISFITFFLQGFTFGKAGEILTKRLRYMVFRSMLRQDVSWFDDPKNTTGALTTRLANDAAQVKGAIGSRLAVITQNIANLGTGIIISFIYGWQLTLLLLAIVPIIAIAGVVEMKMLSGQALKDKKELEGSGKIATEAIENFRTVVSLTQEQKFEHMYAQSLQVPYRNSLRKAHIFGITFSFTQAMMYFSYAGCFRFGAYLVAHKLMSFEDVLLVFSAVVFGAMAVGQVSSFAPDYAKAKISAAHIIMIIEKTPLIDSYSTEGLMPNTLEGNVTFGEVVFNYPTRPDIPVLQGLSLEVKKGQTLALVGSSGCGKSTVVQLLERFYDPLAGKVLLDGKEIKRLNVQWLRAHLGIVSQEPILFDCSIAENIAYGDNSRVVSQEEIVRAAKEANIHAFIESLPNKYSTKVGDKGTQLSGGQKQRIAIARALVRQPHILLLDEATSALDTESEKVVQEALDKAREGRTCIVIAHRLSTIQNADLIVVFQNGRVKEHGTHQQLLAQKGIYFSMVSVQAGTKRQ

Compound | GI50 [1] [µM] | GI50 [2] [µM] | GI50 [3] [µM] | GI50 [4] [µM] | GI50 [5] [µM] | GI50 [6] [µM] | GI50 [7] [µM] | GI50 [8] [µM] | GI50 ([1]; Homo sapiens, HBL-100) [µM] | GI50 ([2]; Homo sapiens, HeLa) [µM] | GI50 ([3]; Homo sapiens, T47D) [µM] | GI50 ([4]; Homo sapiens, Fibroblast) [µM] | GI50 ([5]; Homo sapiens, A549) [µM] | GI50 ([7]; Homo sapiens, WiDr) [µM] | GI50 at 48 h [9] [µM] | substrate for P-gp ([10]; SW1573 vs SW1573/PGP, with or without 10 µM verapamil) | Rf w Verapamil [10] | Rf w/o Verapamil [10] | GI50 ([8]; Homo sapiens, SW1573) [µM] | melting point [°C]
20-Oxopregna-5,16-dien-3β-yl Acetate [Compound 6] | 64 ± 1.6 | 3.6 ± 0.4 | 29 ± 4.5 | > 100 | 26 ± 5.2 | > 100 | 37 ± 2.1 | 72 ± 10 |  |  |  |  |  |  |  |  |  |  |  | 
C[C@]12CC[C@H](O)CC1=CC[C@@H]1[C@@H]2CC[C@]2(C)C(c3cccnc3)=CC[C@@H]12 [Abiraterone, abiraterone, reference compound] |  |  |  |  |  |  |  |  | > 100 | 7.9 ± 0.5 | 24 ± 4.5 | 4.5 ± 1 | 95 ± 0.8 | 42 ± 7.7 |  |  |  |  |  | 
C[C@]12CC[C@H]3[C@@H](CC=C4C[C@@H](O)CC[C@@]43C)[C@@H]1CC[C@@H]2C(=O)/C=C/c1ccccc1 [Compound 2, (E)-21-benzyliden-3β-hydroxypregn-5-en-20-one] |  |  |  |  |  |  |  |  | 19 ± 3.7 | 3.3 ± 0.3 | 9.9 ± 3.5 | > 100 | 23 ± 1.6 | 6.3 ± 0.5 | 29 ± 5.5 | not substrates for P-gp | 1.5 | 1.2 | 23 ± 0.2 | 
C[C@]12CCC3C(CC=C4C[C@@H](O)CC[C@@]43C)C1CCC2C1=CC(c2ccccc2)NC(=N)N1 (stereo partly drawn) [Compound 3a, 17β-(2′-imino-1′,3′,6′-trihydro-6′-phenylpyrimidin-4′-yl)-androst-5-en-3β-ol] |  |  |  |  |  |  |  |  | 23 ± 2.8 | 6.1 ± 1.2 | 8.8 ± 2.2 | > 100 | 4.4 ± 1 | 8.3 ± 1.1 | 10 ± 4.2 |  | 0.7 | 1.5 | 6.9 ± 0.5 | 128
C[C@]12CCC3C(CC=C4C[C@@H](O)CC[C@@]43C)C1CCC2C1=CC(c2ccccc2)NC(=O)N1 (stereo partly drawn) [Compound 3b, 17β-(1′,3′,6′-trihydro-2′-oxo-6′-phenylpyrimidin-4′-yl)-androst-5-en-3β-ol] |  |  |  |  |  |  |  |  | 16 ± 1.3 | 14 ± 3.6 | 15 ± 1.3 | 97 ± 5.9 | 11 ± 2.9 | 15 ± 3.5 | 34 ± 13 |  | 1.6 | 1.9 |  | 108 to 110
C[C@]12CCC3C(CC=C4C[C@@H](O)CC[C@@]43C)C1CCC2C1=CC(c2ccccc2)NC(=S)N1 (stereo partly drawn) [Compound 3c, 17β-(1′,3′,6′-trihydro-6′-phenyl-2′-thioxopyrimidin-4′-yl)-androst-5-en-3β-ol] |  |  |  |  |  |  |  |  | 45 ± 7.9 | 11 ± 1.5 | 13 ± 2.3 | > 100 | 7.7 ± 1 | 9.2 ± 1.6 | 38 ± 6.1 |  | 1.8 | 3.2 | 12 ± 2.7 | 208 to 210
